Data: patent publication US5593984A, “Cephalosporin derivatives” (Yuhan Corporation, priority 1992, dated 1997)
In brackets after ≈: the same amount, converted by molar mass.

How the values were obtained:
Type in all cases: cell-based
B. subtilis ATCC 6633 = test: MIC by agar dilution, B. subtilis ATCC 6633; settings: B. subtilis ATCC 6633, agar dilution, Mueller-Hinton agar; for MIC: Bacillus subtilis, ATCC6633, 17 h, read-out: Minimal Inhibitory Concentration (MIC)
Procedure, shortened: (§1)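 Agar dilution MIC: Mueller-Hinton agar, 2-fold compound series, inoculum 10^6 CFU/ml, 35°-37° C., 17±1 h.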

Staph. aureus ATCC 6538P = test: MIC by agar dilution, Staph. aureus ATCC 6538P; settings: Staph. aureus ATCC 6538P, agar dilution, Mueller-Hinton agar; for MIC: Staphylococcus aureus, ATCC6538P, 17 h, read-out: Minimal Inhibitory Concentration (MIC)
Procedure, shortened: as §1

Staph. aureus Smith = test: MIC by agar dilution, Staph. aureus Smith; settings: Mueller-Hinton agar; for MIC: Staphylococcus aureus, 17 h, read-out: Minimal Inhibitory Concentration (MIC)
Procedure, shortened: as §1

Staph. aureus C-57 = test: MIC by agar dilution, Staph. aureus C-57; settings: Mueller-Hinton agar; for MIC: Staphylococcus aureus, C57, 17 h, read-out: Minimal Inhibitory Concentration (MIC)
Procedure, shortened: as §1

Staph. aureus C-5113 = test: MIC by agar dilution, Staph. aureus C-5113; settings: Mueller-Hinton agar; for MIC: Staphylococcus aureus, C5113, 17 h, read-out: Minimal Inhibitory Concentration (MIC)
Procedure, shortened: as §1

Staph. aureus C-5216 = test: MIC by agar dilution, Staph. aureus C-5216; settings: Mueller-Hinton agar; for MIC: Staphylococcus aureus, C5216, 17 h, read-out: Minimal Inhibitory Concentration (MIC)
Procedure, shortened: as §1

[1] = tested on: S. epidermidis ATCC 12228; test: MIC by agar dilution, S. epidermidis ATCC 12228; settings: S. epidermidis ATCC 12228, agar dilution, Mueller-Hinton agar; for MIC: Staphylococcus epidermidis, ATCC12228, 17 h, read-out: Minimal Inhibitory Concentration (MIC)
Procedure, shortened: as §1

Ent. aerogenes IFO 12979 = test: MIC by agar dilution, Ent. aerogenes IFO 12979; settings: Mueller-Hinton agar; for MIC: Klebsiella aerogenes, IFO12979, 17 h, read-out: Minimal Inhibitory Concentration (MIC)
Procedure, shortened: as §1

Ent. cloacae IFO 13535 = test: MIC by agar dilution, Ent. cloacae IFO 13535; settings: Ent. cloacae IFO 13535, agar dilution, Mueller-Hinton agar; for MIC: Enterobacter cloacae, IFO13535, 17 h, read-out: Minimal Inhibitory Concentration (MIC)
Procedure, shortened: as §1

E. coli NIHJ JC-2 = test: MIC by agar dilution, E. coli NIHJ JC-2; settings: E. coli NIHJ JC-2, agar dilution, Mueller-Hinton agar; for MIC: Escherichia coli, NIHJJC2, 17 h, read-out: Minimal Inhibitory Concentration (MIC)
Procedure, shortened: as §1

E. coli No. 29 = test: MIC by agar dilution, E. coli No. 29; settings: E. coli No. 29, agar dilution, Mueller-Hinton agar; for MIC: Escherichia coli, 17 h, read-out: Minimal Inhibitory Concentration (MIC)
Procedure, shortened: as §1

E. coli DY-1 = test: MIC by agar dilution, E. coli DY-1; settings: E. coli DY-1, agar dilution, Mueller-Hinton agar; for MIC: Escherichia coli, DY1, 17 h, read-out: Minimal Inhibitory Concentration (MIC)
Procedure, shortened: as §1

K. pneumoniae NCTC 9632 = test: MIC by agar dilution, K. pneumoniae NCTC 9632; settings: K. pneumoniae NCTC 9632, agar dilution, Mueller-Hinton agar; for MIC: Klebsiella pneumoniae, NCTC9632, 17 h, read-out: Minimal Inhibitory Concentration (MIC)
Procedure, shortened: as §1

M. morganii DY-1 = test: MIC by agar dilution, M. morganii DY-1; settings: M. morganii DY-1, agar dilution, Mueller-Hinton agar; for MIC: Morganella morganii, DY1, 17 h, read-out: Minimal Inhibitory Concentration (MIC)
Procedure, shortened: as §1

[2] = tested on: Ps. aeruginosa ATCC 10145; test: MIC by agar dilution, Ps. aeruginosa ATCC 10145; settings: Mueller-Hinton agar; for MIC: Pseudomonas aeruginosa, ATCC10145, 17 h, read-out: Minimal Inhibitory Concentration (MIC)
Procedure, shortened: as §1

[3] = tested on: Ps. aeruginosa NCTC 10490; test: MIC by agar dilution, Ps. aeruginosa NCTC 10490; settings: Mueller-Hinton agar; for MIC: Pseudomonas aeruginosa, NCTC10490, 17 h, read-out: Minimal Inhibitory Concentration (MIC)
Procedure, shortened: as §1

Ps. aeruginosa DY-2 = test: MIC by agar dilution, Ps. aeruginosa DY-2; settings: Ps. aeruginosa DY-2, agar dilution, Mueller-Hinton agar; for MIC: Pseudomonas aeruginosa, DY2, 17 h, read-out: Minimal Inhibitory Concentration (MIC)
Procedure, shortened: as §1

P. vulgaris NCTC 8313 = test: MIC by agar dilution, P. vulgaris NCTC 8313; settings: P. vulgaris NCTC 8313, agar dilution, Mueller-Hinton agar; for MIC: Proteus vulgaris, NCTC8313, 17 h, read-out: Minimal Inhibitory Concentration (MIC)
Procedure, shortened: as §1

Prov. stuartii IFO 12930 = test: MIC by agar dilution, Prov. stuartii IFO 12930; settings: Mueller-Hinton agar; for MIC: Providencia stuartii, IFO12930, 17 h, read-out: Minimal Inhibitory Concentration (MIC)
Procedure, shortened: as §1

[4] = tested on: Ser. marcescens IFO 12648; test: MIC by agar dilution, Ser. marcescens IFO 12648; settings: Ser. marcescens IFO 12648, agar dilution, Mueller-Hinton agar; for MIC: Serratia marcescens, IFO12648, 17 h, read-out: Minimal Inhibitory Concentration (MIC)
Procedure, shortened: as §1

| MIC (B. subtilis ATCC 6633) | MIC (Staph. aureus ATCC 6538P) | MIC (Staph. aureus Smith) | MIC (Staph. aureus C-57) | MIC (Staph. aureus C-5113) | MIC (Staph. aureus C-5216) | MIC [1] | MIC (Ent. aerogenes IFO 12979) | MIC (Ent. cloacae IFO 13535) | MIC (E. coli NIHJ JC-2) | MIC (E. coli No. 29) | MIC (E. coli DY-1) | MIC (K. pneumoniae NCTC 9632) | MIC (M. morganii DY-1) | MIC [2] | MIC [3] | MIC (Ps. aeruginosa DY-2) | MIC (P. vulgaris NCTC 8313) | MIC (Prov. stuartii IFO 12930) | MIC [4] | SMILES | other results |
| --- | --- | --- | --- | --- | --- | --- | --- | --- | --- | --- | --- | --- | --- | --- | --- | --- | --- | --- | --- | --- | --- |
| 0.39 µg/mL (≈ 0.629 µM) | 0.39 µg/mL (≈ 0.629 µM) | 1.56 µg/mL (≈ 2.51 µM) | 25 µg/mL (≈ 40.3 µM) | 1.56 µg/mL (≈ 2.51 µM) | 3.13 µg/mL (≈ 5.04 µM) | 0.1 µg/mL (≈ 0.161 µM) | 0.05 µg/mL (≈ 0.0806 µM) | 0.78 µg/mL (≈ 1.26 µM) | 0.2 µg/mL (≈ 0.322 µM) | 0.05 µg/mL (≈ 0.0806 µM) | 0.025 µg/mL (≈ 0.0403 µM) | 0.2 µg/mL (≈ 0.322 µM) | 0.2 µg/mL (≈ 0.322 µM) | 6.25 µg/mL (≈ 10.1 µM) | 3.13 µg/mL (≈ 5.04 µM) | 25 µg/mL (≈ 40.3 µM) | 0.025 µg/mL (≈ 0.0403 µM) | 0.05 µg/mL (≈ 0.0806 µM) | 0.2 µg/mL (≈ 0.322 µM) | CCO/N=C(\C(=O)N[C@@H]1C(=O)N2C(C(=O)[O-])=C(C[n+]3ccn4c(Br)ccc4c3C)CS[C@H]12)c1csc(N)n1 [Ex. 42, 7-β-[(Z)-2-(2-aminothiazol-4-yl)-2-ethoxyiminoacetamido]-3-(6-bromo-1-methylpyrrolo[1,2-a]pyrazinium-2-yl)methyl-3-cephem-4-carboxylate] |  |
| 0.2 µg/mL (≈ 0.362 µM) | 0.1 µg/mL (≈ 0.181 µM) | 0.78 µg/mL (≈ 1.41 µM) | 12.5 µg/mL (≈ 22.6 µM) | 1.56 µg/mL (≈ 2.82 µM) | 0.78 µg/mL (≈ 1.41 µM) | 0.012 µg/mL (≈ 0.0217 µM) | 0.012 µg/mL (≈ 0.0217 µM) | 0.2 µg/mL (≈ 0.362 µM) | 0.025 µg/mL (≈ 0.0452 µM) | 0.05 µg/mL (≈ 0.0905 µM) | 0.012 µg/mL (≈ 0.0217 µM) | 0.1 µg/mL (≈ 0.181 µM) | 0.05 µg/mL (≈ 0.0905 µM) | 0.78 µg/mL (≈ 1.41 µM) | 0.78 µg/mL (≈ 1.41 µM) | 12.5 µg/mL (≈ 22.6 µM) | ≤ 0.006 µg/mL | 0.012 µg/mL (≈ 0.0217 µM) | 0.05 µg/mL (≈ 0.0905 µM) | CO/N=C(\C(=O)N[C@@H]1C(=O)N2C(C(=O)[O-])=C(C[n+]3ccn4c(C#N)ccc4c3C)CS[C@H]12)c1csc(N)n1 [Ex. 43, 7-β-[(Z)-2-(2-aminothiazol-4-yl)-2-methoxyiminoacetamido]-3-(1-methyl-6-cyanopyrrolo[1,2-a]pyrazinium-2-yl)methyl-3-cephem-4-carboxylate] |  |
|  |  |  |  |  |  |  |  |  |  |  |  |  |  |  |  |  |  |  |  | CCO/N=C(\C(=O)N[C@@H]1C(=O)N2C(C(=O)[O-])=C(C[n+]3ccn4c(C(N)=O)ccc4c3C)CS[C@H]12)c1csc(N)n1 [Ex. 44, 7-β-[(Z)-2-(2-aminothiazol-4-yl)-2-ethoxyiminoacetamido]-3-(6-carbamoyl-1-methylpyrrolo[1,2-a]pyrazinium-2-yl)methyl-3-cephem-4-carboxylate] | Minimal Inhibitory Concentration (MIC) (B. subtilis ATCC 6633): 0.390 µg/mL; Minimal Inhibitory Concentration (MIC) (Staph. aureus ATCC 6538P): 0.200 µg/mL; Minimal Inhibitory Concentration (MIC) (Staph. aureus Smith): 0.780 µg/mL; Minimal Inhibitory Concentration (MIC) (Staph. aureus C-57): 100.000 µg/mL; Minimal Inhibitory Concentration (MIC) (Staph. aureus C-5113): 1.560 µg/mL; Minimal Inhibitory Concentration (MIC) (Staph. aureus C-5216): 1.560 µg/mL; Minimal Inhibitory Concentration (MIC) [1]: 0.100 µg/mL; Minimal Inhibitory Concentration (MIC) (Ent. aerogenes IFO 12979): 0.050 µg/mL; Minimal Inhibitory Concentration (MIC) (Ent. cloacae IFO 13535): 0.100 µg/mL; Minimal Inhibitory Concentration (MIC) (E. coli NIHJ JC-2): 0.050 µg/mL; Minimal Inhibitory Concentration (MIC) (E. coli No. 29): 0.025 µg/mL; Minimal Inhibitory Concentration (MIC) (E. coli DY-1): 0.025 µg/mL; Minimal Inhibitory Concentration (MIC) (K. pneumoniae NCTC 9632): 0.050 µg/mL; Minimal Inhibitory Concentration (MIC) (M. morganii DY-1): 0.100 µg/mL; Minimal Inhibitory Concentration (MIC) [2]: 3.130 µg/mL; Minimal Inhibitory Concentration (MIC) [3]: 0.780 µg/mL; Minimal Inhibitory Concentration (MIC) (Ps. aeruginosa DY-2): 6.250 µg/mL; Minimal Inhibitory Concentration (MIC) (P. vulgaris NCTC 8313): 0.050 µg/mL; Minimal Inhibitory Concentration (MIC) (Prov. stuartii IFO 12930): 0.012 µg/mL; Minimal Inhibitory Concentration (MIC) [4]: 0.050 µg/mL |
| 0.1 µg/mL (≈ 0.178 µM) | 0.1 µg/mL (≈ 0.178 µM) | 0.39 µg/mL (≈ 0.694 µM) | 6.25 µg/mL (≈ 11.1 µM) | 0.39 µg/mL (≈ 0.694 µM) | 0.78 µg/mL (≈ 1.39 µM) | 0.012 µg/mL (≈ 0.0214 µM) | 0.025 µg/mL (≈ 0.0445 µM) | 0.05 µg/mL (≈ 0.089 µM) | 0.025 µg/mL (≈ 0.0445 µM) | 0.012 µg/mL (≈ 0.0214 µM) | 0.012 µg/mL (≈ 0.0214 µM) | 0.012 µg/mL (≈ 0.0214 µM) | 0.012 µg/mL (≈ 0.0214 µM) | 3.13 µg/mL (≈ 5.57 µM) | 0.39 µg/mL (≈ 0.694 µM) | 6.25 µg/mL (≈ 11.1 µM) | ≤ 0.006 µg/mL | ≤ 0.006 µg/mL | 0.025 µg/mL (≈ 0.0445 µM) | CO/N=C(\C(=O)N[C@@H]1C(=O)N2C(C(=O)[O-])=C(C[n+]3ccn4c(Cl)ccc4c3C)CS[C@H]12)c1csc(N)n1 [Ex. 45, 7-β-[(Z)-2-(2-aminothiazol-4-yl)-2-methoxyiminoacetamido]-3-(6-chloro-1-methylpyrrolo[1,2-a]pyrazinium-2-yl)methyl-3-cephem-4-carboxylate] |  |
